According to US8513227B2, “Inhibition of inflammatory cytokine production with tanshinones” (The Feinstein Institute for Medical Research, priority 2006, dated 2013):

How the values were obtained:
TNF = assay: LPS-induced TNF release in human peripheral blood mononuclear cells (ELISA); format: cell-based; details: 100 μM, FIG. 2B lower panel
Description: (§1) Cell culture. Murine macrophage-like RAW 264.7 cells were obtained from the American Type Culture Collection (ATCC, Rockville, Md.), and primary peritoneal macrophages were isolated from Balb/C mice (male, 7-8 weeks, 20-25 grams) at 2-3 days after intraperitoneal injection of 2 ml thioglycollate broth (4%) as previously described (Chen et al. 2004; Rendon-Mitchell et al. 2003). Murine macrophages were pre-cultured in RPMI 1640 medium (Gibco BRL, Grand Island, N.Y.) supplemented with 10% fetal bovine serum (FBS) and 2 mmol/L glutamine. […]
(§2) LPS stimulation. […] At 16 hours after LPS stimulation, levels of HMGB1 in the culture medium were determined as previously described (Chen et al. 2004; Rendon-Mitchell et al. 2003; Wang et al. 1999).
TNF ELISA. The levels of TNF in the culture medium or serum were determined using commercial enzyme linked immunosorbent assay (ELISA) kits (Catalog no. MTA00, R & D Systems, Minneapolis, Minn.) with reference to standard curves of purified recombinant TNF at various dilutions as previously described (Chen et al. 2004; Rendon-Mitchell et al. 2003; Wang et al. 2006).

HMGB1 = assay: LPS-induced HMGB1 release in primary human peripheral blood mononuclear cells; format: cell-based; details: FIG. 2B
Description: as §1, §2
HMGB1 western blotting analysis. The levels of HMGB1 in the culture medium or serum were determined by western blotting analysis as previously described (Chen et al. 2004; Rendon-Mitchell et al. 2003; Wang et al. 1999). The relative band intensity was quantified using NIH image 1.59 software to determine HMGB1 levels with reference to standard curves generated with purified HMGB1.

Cc1c(S(=O)(=O)[O-])oc2c1C(=O)C(=O)c1c-2ccc2c1CCCC2(C)C.[Na+] [TSNIIA-SS, tanshinone IIA sodium sulfonate]
effect on LPS-induced release of TNF (TNF): did not completely block | effect on LPS-induced HMGB1 release (HMGB1): effectively inhibited
